Drawing on patent publication US9630922B2, “3-spiro-7-hydroxamic acid tetralins as HDAC inhibitors” (Forma Therapeutics, Inc., priority 2015, dated 2017), this text covers IC50 for 26 compounds.

Where only a bound is given, the exact number is not on record here.

The test has as its target T1, HDAC6 (Homo sapiens, UniProt Q9UBN7).
T1 construct: Full length human recombinant HDAC6 protein was expressed in baculoviral system; made in house; host or cells: baculoviral system
T1 sequence (Q9UBN7 1-1215): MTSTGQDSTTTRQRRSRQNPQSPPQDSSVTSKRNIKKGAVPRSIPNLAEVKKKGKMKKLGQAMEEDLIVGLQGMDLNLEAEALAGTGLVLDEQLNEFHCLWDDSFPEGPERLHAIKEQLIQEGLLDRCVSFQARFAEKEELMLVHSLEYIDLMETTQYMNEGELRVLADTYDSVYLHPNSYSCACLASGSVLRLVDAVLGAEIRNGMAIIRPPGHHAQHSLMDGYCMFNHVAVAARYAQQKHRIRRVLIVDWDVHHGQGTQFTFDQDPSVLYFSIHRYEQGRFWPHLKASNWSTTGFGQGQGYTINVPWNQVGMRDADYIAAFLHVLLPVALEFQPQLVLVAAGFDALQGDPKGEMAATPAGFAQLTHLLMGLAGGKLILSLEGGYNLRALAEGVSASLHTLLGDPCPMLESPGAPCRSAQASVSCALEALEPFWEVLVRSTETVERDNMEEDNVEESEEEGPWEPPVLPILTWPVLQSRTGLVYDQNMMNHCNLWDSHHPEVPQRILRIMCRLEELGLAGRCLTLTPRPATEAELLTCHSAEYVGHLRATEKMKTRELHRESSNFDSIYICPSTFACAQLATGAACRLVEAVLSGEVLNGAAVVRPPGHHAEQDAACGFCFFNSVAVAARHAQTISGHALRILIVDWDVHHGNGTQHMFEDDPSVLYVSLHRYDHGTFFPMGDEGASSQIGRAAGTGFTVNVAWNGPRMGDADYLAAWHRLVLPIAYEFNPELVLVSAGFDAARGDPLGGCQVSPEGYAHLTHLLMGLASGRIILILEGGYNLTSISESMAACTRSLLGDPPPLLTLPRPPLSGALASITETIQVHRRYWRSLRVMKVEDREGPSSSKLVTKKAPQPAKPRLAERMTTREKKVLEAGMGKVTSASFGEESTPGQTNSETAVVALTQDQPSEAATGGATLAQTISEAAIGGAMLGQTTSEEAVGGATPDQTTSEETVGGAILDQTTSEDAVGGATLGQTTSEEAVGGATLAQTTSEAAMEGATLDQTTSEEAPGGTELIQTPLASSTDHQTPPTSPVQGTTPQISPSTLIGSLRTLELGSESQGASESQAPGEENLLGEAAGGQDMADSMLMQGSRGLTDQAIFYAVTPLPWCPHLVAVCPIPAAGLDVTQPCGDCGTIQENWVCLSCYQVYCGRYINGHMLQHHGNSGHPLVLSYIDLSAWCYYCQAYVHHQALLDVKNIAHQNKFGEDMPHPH
As to the kind of experiment: In vitro Histone Deacetylase Assay (enzymatic HDAC6 electrophoretic mobility shift assay). It counts as biochemical. Particulars: full length human recombinant HDAC6, 1 nM enzyme, 2 μM peptide substrate RHKK(Ac)-NH2, 25° C.; read-out: HDAC6 activity range. As for the experimental part:
The enzymatic HDAC6 assay was performed using electrophoretic mobility shift assay. Full length human recombinant HDAC6 protein was expressed in baculoviral system and purified by affinity chromatography. The enzymatic reactions were assembled in 384 well plates in a total volume of 25 μL in a reaction buffer composing: 100 mM HEPES, pH7.5, 25 mM KCl, 0.1% bovine serum albumin, 0.01% Triton X-100, 1% DMSO (from compounds) 2 μM of the fluorescently labeled peptide substrate and enzyme. The enzyme was added at a final concentration of 1 nM. The peptide substrate RHKK(Ac)—NH2 was used. The compounds were tested at 12 concentrations spaced by 3× dilution intervals. Negative control samples (0%-inhibition in the absence of inhibitor) and positive control samples (100%-inhibition) were assembled in replicates of four in each assay plate. The reactions were incubated at 25° C. and quenched by the addition of 45 μL of termination buffer (100 mM HEPES, pH 7.5, 0.01% Triton X-100, 0.05% SDS).
The terminated assay plates were analyzed on LabChip® 3000 microfluidic electrophoresis instrument (Perkin Elmer/Caliper Life Sciences). The fluorescence intensity of the electrophoretically separated de-acetylated product and substrate peptide was measured. Activity in each sample was determined as the product to sum ratio (PSR): P/(S+P), where P is the peak height of the product peptide and S is the peak height of the substrate peptide. Percent inhibition (Pinh) is determined using the following equation:
Pinh=(PSR0%−PSRinh)/(PSR0%−PSR100%)*100, where PSRinh is the product sum ratio in the presence of inhibitor, PSR0% is the average product sum ration in the absence of inhibitor and PSR100% is the average product sum ratio in 100%-inhibition control samples. The IC50 values of inhibitors were determined by fitting the %-inhibition curves with 4 parameter dose-response model using XLfit 4 software.
As set forth in Table-31, below, IC50 values are defined as follows: IC50≦0.1 μM (+++); IC50>0.1 μM and ≦0.5 μM (++); IC50>0.5 μM (+).

As to `CN(C)c1ccc(N2CC[C@]3(CCc4cc(C(=O)NO)ccc4C3)C2=O)cn1` [Compound I-151, (2R)-1′-[6-(dimethylamino)pyridin-3-yl]-N-hydroxy-2′-oxo-3,4-dihydro-1H-spiro[naphthalene-2,3′-pyrrolidine]-6-carboxamide], the IC50 is ≤ 100 nM.
For `O=C(NO)c1ccc2c(c1)CC[C@@]1(CCN(CC3COC3)C1=O)C2` [Compound I-122, (S)-N-hydroxy-1′-(oxetan-3-ylmethyl)-2′-oxo-3,4-dihydro-1H-spiro[naphthalene-2,3′-pyrrolidine]-6-carboxamide] the value was 100 to 500 nM; for `COc1ccccc1N1CC[C@@]2(CCc3cc(C(=O)NO)ccc3C2)C1=O` [Compound I-115, (S)-N-hydroxy-1′-(2-methoxyphenyl)-2′-oxo-3,4-dihydro-1H-spiro[naphthalene-2,3′-pyrrolidine]-6-carboxamide], ≤ 100 nM.
Consider `COc1cncc(N2CC[C@]3(CCc4cc(C(=O)NO)ccc4C3)C2=O)c1` [Compound I-143, (R)-N-hydroxy-1′-(5-methoxypyridin-3-yl)-2′-oxo-3,4-dihydro-1H-spiro[naphthalene-2,3′-pyrrolidine]-6-carboxamide], for which the IC50 was ≤ 100 nM.
For `O=C(NO)c1ccc2c(c1)CCC1(CC(=O)N(C3CC3)C1)C2` (single isomer, unassigned) [Compound I-209] the value was ≤ 100 nM.
With `O=C(NO)c1ccc2c(c1)CC[C@]1(CCN(Cc3ccccn3)C1=O)C2` [Compound I-52, (R)-N-hydroxy-2′-oxo-1′-(pyridin-2-ylmethyl)-3,4-dihydro-1H-spiro[naphthalene-2,3′-pyrrolidine]-6-carboxamide], the IC50 is ≤ 100 nM.
For the compound `CCN1CC2(CCc3cc(C(=O)NO)ccc3C2)CC1=O` (single isomer, unassigned) [Compound I-211], the IC50 is ≤ 100 nM.
As to `CN1CCC[C@]2(CCc3cc(C(=O)NO)ccc3C2)C1=O` (single isomer, unassigned) [Compound I-180], the IC50 is ≤ 100 nM.
For the compound `O=C(NO)c1ccc2c(c1)CC[C@@]1(CCCN(C3CCCC3)C1=O)C2` [Compound I-199, (R)-1′-cyclopentyl-N-hydroxy-2′-oxo-3,4-dihydro-1H-spiro[naphthalene-2,3′-piperidine]-6-carboxamide], the IC50 is ≤ 100 nM.
Under `O=C(NO)c1ccc2c(c1)CC[C@]1(CCN(c3cccc(F)c3)C1=O)C2` [Compound I-113, (R)-1′-(3-fluorophenyl)-N-hydroxy-2′-oxo-3,4-dihydro-1H-spiro[naphthalene-2,3′-pyrrolidine]-6-carboxamide] stands ≤ 100 nM.
Turning to `COCCN1CC[C@@]2(CCc3cc(C(=O)NO)ccc3C2)C1=O` [Compound I-64, (S)-N-hydroxy-1′-(2-methoxyethyl)-2′-oxo-3,4-dihydro-1H-spiro[naphthalene-2,3′-pyrrolidine]-6-carboxamide], the IC50 lay in the range of 100 to 500 nM.
Under `COc1ccc(C(=O)N2CCC3(CCc4cc(C(=O)NO)ccc4O3)CC2)cc1` [II-4, N-hydroxy-1′-(4-methoxybenzoyl)spiro[chromane-2,4′-piperidine]-6-carboxamide] stands > 500 nM; under `Cn1cc(N2CC[C@]3(CCc4cc(C(=O)NO)ccc4C3)C2=O)cn1` [Compound I-168, (R)-N-hydroxy-1′-(1-methyl-1H-pyrazol-4-yl)-2′-oxo-3,4-dihydro-1H-spiro[naphthalene-2,3′-pyrrolidine]-6-carboxamide], ≤ 100 nM; under `O=C(NO)c1ccc2c(c1)CC[C@@]1(CCN(c3ccc(F)cc3)C1=O)C2` [Compound I-154, (S)-1′-(4-fluorophenyl)-N-hydroxy-2′-oxo-3,4-dihydro-1H-spiro[naphthalene-2,3′-pyrrolidine]-6-carboxamide], ≤ 100 nM.
Regarding `O=C(NO)c1ccc2c(c1)CCC1(CCCN(Cc3ccccc3)C1=O)C2` (centres unmarked) [Compound I-176, 1′-benzyl-N-hydroxy-2′-oxo-3,4-dihydro-1H-spiro[naphthalene-2,3′-piperidine]-6-carboxamide], the IC50 is ≤ 100 nM.
For the compound `O=C(NO)c1ccc2c(c1)CC[C@@]1(CCN(C/C=C/c3ccccc3)C1=O)C2` [Compound I-65, (S)-1′-cinnamyl-N-hydroxy-2′-oxo-3,4-dihydro-1H-spiro[naphthalene-2,3′-pyrrolidine]-6-carboxamide], the IC50 was ≤ 100 nM.
On to `O=C(NO)c1ccc2c(c1)CC[C@]1(CCCN(c3ccccc3)C1=O)C2` (single isomer, unassigned) [Compound I-182], for which the IC50 was ≤ 100 nM.
On to `O=C(NO)c1ccc2c(c1)CC[C@]1(CCN(c3cccc4c3OCC4)C1=O)C2` [Compound I-96, (R)-1′-(2,3-dihydrobenzofuran-7-yl)-N-hydroxy-2′-oxo-3,4-dihydro-1H-spiro[naphthalene-2,3′-pyrrolidine]-6-carboxamide], for which the IC50 is ≤ 100 nM.
For `O=C(NO)c1ccc2c(c1)CC[C@]1(CCN(Cc3cccc(Cl)c3)C1=O)C2` [Compound I-54, (R)-1′-(3-chlorobenzyl)-N-hydroxy-2′-oxo-3,4-dihydro-1H-spiro[napthalene-2,3′-pyrrolidine]-6-carboxamide] the value was ≤ 100 nM.
Regarding `O=C(NO)c1ccc2c(c1)CCC1(CCN(Cc3ccc(Cl)c(Cl)c3)C1=O)C2` (centres unmarked) [Compound I-6, 1′-(3,4-dichlorobenzyl)-N-hydroxy-2′-oxo-3,4-dihydro-1H-spiro[naphthalene-2,3′-pyrrolidine]-6-carboxamide], the IC50 is ≤ 100 nM.
For `O=C(NO)c1ccc2c(c1)CC[C@@]1(CCN(Cc3ccccc3OC(F)(F)F)C1=O)C2` [Compound I-69, (S)-N-hydroxy-2′-oxo-1′-(2-(trifluoromethoxy)benzyl)-3,4-dihydro-1H-spiro[naphthalene-2,3′-pyrrolidine]-6-carboxamide] the value was 100 to 500 nM; for `O=C(NO)c1ccc2c(c1)CCC1(CCCN(CC3COC3)C1=O)C2` (single isomer, unassigned) [Compound I-195], ≤ 100 nM; for `O=C(NO)c1ccc2c(c1)CCC1(CCCNC1=O)C2` (centres unmarked) [Compound I-177, N-hydroxy-2′-oxo-3,4-dihydro-1H-spiro[naphthalene-2,3′-piperidine]-6-carboxamide], ≤ 100 nM.
For `O=C(NO)c1ccc2c(c1)CCC1(CC(=O)N(c3ccc(F)cc3)C1)C2` (single isomer, unassigned) [Compound I-227] the value was ≤ 100 nM.
As to `O=C(NO)c1ccc2c(c1)CC[C@@]1(CCN(c3ccccc3)C1=O)C2` [Compound I-29, (S)-N-hydroxy-2′-oxo-1′-phenyl-3,4-dihydro-1H-spiro[naphthalene-2,3′-pyrrolidine]-6-carboxamide], the IC50 is ≤ 100 nM.
Take `COc1ccc(S(=O)(=O)N2CCC3(CCc4cc(C(=O)NO)ccc4O3)CC2)cc1` [II-5, N-hydroxy-1′-((4-methoxyphenyl)sulfonyl)spiro[chromane-2,4′-piperidine]-6-carboxamide]: the IC50 is > 500 nM.
